Assay results as given in patent US9988423B2, “Organogels and emulsions for biological and non-biological applications” (Agency for Science, Technology and Research, priority 2012, dated 2018).
Residues, ends and D or L forms follow the SMILES beside them. No end group written: not given here.

Columns and labels:
[1] = Stability of peptide emulsions in oil:water mixtures (phase separation); type: physicochemical; conditions: 7.5 mg/ml peptide in oil:water 50:50, 80:20, 20:80; in comparison to controls
Experimental: 7.5 mg/ml Ac-IVD-COOH (L) were dissolved in solvent mixtures of oil:water (50:50, 80:20, 20:80).

[2] = Organogel formation (gelation) of peptides in organic solvents; type: physicochemical
Experimental: The exemplary peptides are Ac-ID-COOH (L) (dimer), Ac-IVD-COOH (L) (trimer) and Ac-LIVAGD-COOH (L) (hexamer). The organogels depicted in (C) are (1) Ac-ID-COOH (L) 10 mg/ml in ethyl acetate, (2) Ac-ID-COOH (L) 10 mg/ml in toluene, (3) Ac-IVD-COOH (L) 2 mg/ml in acetonitrile, (4) Ac-IVD-COOH (L) 2 mg/ml in ethyl acetate, (5) Ac-IVD-COOH (L) 5 mg/ml in acetone, (6) Ac-LIVAGD-COOH (L) 5 mg/ml in toluene, and (7) Ac-LIVAGD-COOH (L) 10 mg/ml in ethyl acetate.
The organogels depicted in (B) are (1) Ac-IVF-COOH (L) 5 mg/ml in ethyl acetate, (2) Ac-IVF-COOH (L) 5 mg/ml in acetone, (3) Ac-IVF-COOH (L) 5 mg/ml in acetonitrile, (4) Ac-IVF-COOH (L) 5 mg/ml in chloroform, (5) Ac-IVW-COOH (L) 5 mg/ml in acetone, (6) Ac-IVW-COOH (L) 5 mg/ml in ethyl acetate, and (7) Ac-LIVAGF-COOH (L) 5 mg/ml in acetone.
Gels with increasing concentration of Ac-IVD-COOH (L) were prepared in ethyl acetate. […] Organogels of 2 mg/ml and 5 mg/ml Ac-IVD-COOH (L) in ethyl acetate were analyzed by field emission scanning electron microscopy (FESEM). FIGS. 3B and 3C show the effect of the peptide concentration on organogelation for the hexamer Ac-LIVAGD-COOH (L) in acetonitrile or ethyl acetate.
The formulation of the peptide organogels depends on several factors, such as peptide concentration, polarity of the organic solvent, peptide sequence and type of solvent used (see FIG. 3 as well as FIGS. 10A-G and 11). For example, increasing the peptide concentration reduced the gelation time for the formulation of peptide organogels. Based on the experimental data disclosed herein and his general knowledge, a person skilled in the art would have no problems in figuring out suitable gelation conditions (e.g. a suitable organic solvent) for a given peptide. For example, a skilled person knows about the nature of an organic solvent with respect to its polarity or non-polarity. […] Obviously, there is interaction with the polar head group of the peptide. […] Also, it seems that planar configurations (benzene ring, C═O, nitrile) within the solvent helps to stabilize the gel. This might be explained with a more favourable interaction of p-, sp^2-, or sp-orbitals.

Row | Compound | phase separation of emulsion [1] | effect of peptide concentration on organogelation ([2]; in ethyl acetate, concentrations above 10 mg/ml (1% w/v)) | organogel formation in organic solvents [2] | preferred gelation solvent ([2]; screening for quantum dot loading) | effect of peptide concentration on organogelation ([2]; in acetonitrile, increasing concentration 1-20 mg/ml) | effect of peptide concentration on organogelation ([2]; in ethyl acetate, increasing concentration 5, 10, 20 mg/ml)
1 | CC[C@H](C)[C@H](NC(C)=O)C(=O)N[C@H](C(=O)N[C@@H](CC(=O)O)C(=O)O)C(C)C [Ac-IVD-COOH (L)] (Ac-Ile-Val-Asp-OH) | No phase separation | only partial gelation | formed organogels | gelled preferably in ethyl acetate |  | 
2 | CC[C@H](C)[C@H](NC(C)=O)C(=O)N[C@H](C(=O)N[C@@H](Cc1ccccc1)C(=O)O)C(C)C [Ac-IVF-COOH (L)] |  |  | formed organogels |  |  | 
3 | CC[C@H](C)[C@H](NC(C)=O)C(=O)N[C@H](C(=O)N[C@@H](Cc1c[nH]c2ccccc12)C(=O)O)C(C)C [Ac-IVW-COOH (L)] (Ac-Ile-Val-Trp-OH) |  |  | formed organogels |  |  | 
4 | Ac-LIVAGD [Ac-LIVAGD-COOH (L)] |  |  | formed organogels |  | increased size of the organogel | partial gelation
